This is an account of results in patent US11510945B2, “Compositions and methods for enhancing ion transporter activity and uses thereof” (THE ROYAL INSTITUTION FOR THE ADVANCEMENT OF …, priority 2018, dated 2022).

One assay concerns GFP-wt-CFTR. Kind of assay: Image Correlation Spectroscopy of GFP-wt-CFTR aggregation at the plasma membrane. Conditions: for CFTR clustering / platforms (degree of aggregation) at the plasma membrane: primary human bronchial epithelial cells, fenretinide 1.25 μM 24 h pretreatment, Thaps 2 μM 10-20 min. The format is cell-based, human. As to the method:
FIGS. 3A-E are confocal images of GFP-wt-CFTR expressed at the plasma membrane of pHBE cells under control conditions (Ctr) (FIG. 3A); after 10-20 min treatment with 2 μM Thapsigargin (FIG. 3B); after treatment with 1.25 μM Fenretinide (FIG. 3C); after treatment with 1.25 μM Fenretinide and Thapsigargin (same conditions as above) (FIG. 3D); or after treatment with 1.25 μM Fenretinide+Thapsigargin (same conditions as above)+Amitriptyline (13 μM for 40 min) (FIG. 3E).
FIG. 3F is a graph showing the quantification of CFTR aggregation and accumulation at the cell surface under control conditions (Ctr), after treatment with Thapsigargin (Thaps), after treatment with Fenretinide (Fen), and after treatment with Fenretinide and Thapsigargin (Fen+Thaps).
It was next tested whether fenretinide and/or zinc could have an effect on the ability of native CFTR-expressing epithelial cells to transport chloride. CFTR is known to become localized in relatively stable platforms during viral infection (Abu-Arish et al., 2015). The formation of such platforms expressing CFTR was measured following treatment with fenretinide. The Image Correlation Spectroscopy technique was used to measure the degree of aggregation of GFP-wt-CFTR at the plasma membrane of primary human bronchial epithelial cells. The degree of aggregation is proportional to the mean number of CFTR channels per cluster or platform. Confocal images of CFTR at the plasma membrane were collected for analysis under control (Ctr), thapsigargin (Thaps), fenretinide (Fen) or a combination of Fen+Thaps. Cells were pretreated or not with fenretinide at 1.25 μM for 24 h before imaging whereas Thaps (2 μM) exposures were acute (10-20 min).

Assay [1] has as its system airway epithelial cells overexpressing the delF508 mutated form of CFTR (delF508/delF508). In words: DHA and AA fatty acid levels in airway epithelial cells overexpressing delF508 CFTR. The format is cell-based, human. To be noted: 72h, relative to untreated cells; for DHA levels: 1.25 μM fenretinide and/or 12.5 μM zinc sulfate. As to the method:
FIGS. 2A-C are graphs showing the effect of fenretinide, Zn^2+ treatment on the level of DHA (FIG. 2A), AA (FIG. 2B) and their ratio (FIG. 2C) in lung epithelial cells overexpressing a mutant form of CFTR (CFTR-delF508) or native CFTR (wt CFTR). Lung epithelial cells grown as 80% confluent monolayer of were treated for 72h with 1.25 μM fenretinide and/or 12.5 μM zinc sulfate. The levels of AA and DHA were assessed as previously described in Guilbault et al. 2008, 2009. All statistical analyses were performed using GraphPad™ software (GraphPad, San Diego, Calif., USA). Statistical significance of differences was evaluated using unpaired t-test with Welch's correction. Data are represented as means±SD (*p≤0.05, **p≤0.01, ***p≤0.001, ****p≤0.0001). All experiments were done in triplicates (n=3).
It was next assessed whether fenretinide and zinc modulate the levels of omega-3 (docosahexaenoic acid, DHA) and omega-6 (arachidonic acid, AA) fatty acids in airway epithelial cells overexpressing the delF508 mutated form of CFTR (delF508/delF508) or native CFTR (wt CFTR). […] For AA levels, all treatments led to a significant decrease in AA levels in delF508 CFTR-expressing cells (relative to untreated cells), but not in native CFTR-expressing cells.

A further assay concerns the target T1, F508del-CFTR (Homo sapiens, UniProt P13569, DEL508-508).
T1 construct: host or cells: polarized bronchial epithelial cells
In words: Ussing chamber F508del-CFTR conductance across basally permeabilized polarized cells. The format is cell-based. Conditions: 1.25 μM Fen alone for 3 days, 1 μM VX-809 last 24h. On the procedure:
FIG. 5 is a graph showing the effect of Zinc and/or Fenretinide treatment on F508del-CFTR function after partial rescue by VX-809 (809) in the absence and presence of 50 μM of the potentiator genistein (acts similarly to VX770). Ussing Chambers were used to measure F508del-CFTR conductance by measuring the short-circuit current across basally permeabilized polarized cells in response to forskolin (FSK) or forskolin+genistein (FSK+Gen). Treatment: Cells were treated basally or not with 1.25 μM fenretinide (Fen) or the combination a combination of 1.25 μM Fenretinide and 12.5 μM Zinc (FenZn) for 3 days. 1 μM VX-809 was added bilaterally during the last 24h. Unpaired student t-test was used for statistical analysis.
FIG. 6 is a graph showing the effect of Zinc and/or Fenretinide treatment on F508del-CFTR mediated secretion in the absence of VX-809. Ussing Chambers were used to measure F508del-CFTR functional expression as short-circuit current across polarized and basally permeabilized bronchial epithelial cells in response to forskolin (FSK) or forskolin+genistein (FSK+Gen). Cells were treated basally or not with 1.25 μM Fenretinide (Fen) and/or 12.5 μM Zinc (Zn) for 3 days. […]

In assay [2] the test system is cytoplasmic phospholipases (cPLA2). In words: cPLA2 activity in lung epithelial cells (commercial kit). It is filed as cell-based, human. On the procedure:
FIG. 1 is a graph showing the effect of fenretinide and Zn^2+ treatment on the activity of cytoplasmic phospholipases (cPLA2). Lung epithelial cells were treated with 1.25 μM fenretinide (Fen) and/or 12.5 μM zinc sulfate (Zn^2+) for 12, 24, 48 or 72 hours and the activity of PLA2 was assessed using a commercially available ELISA kit (Abcam, cat. No. ab133090). All statistical analyses were performed using GraphPad™ software (GraphPad, San Diego, Calif., USA). Statistical significance of differences was evaluated using unpaired t-test with Welch's correction. Data are represented as means±SD (*p 0.05, **p 0.01, ***p 0.001, ****p 0.0001). All experiments were done in triplicates (n=3).
The effect of fenretinide (Fen) and/or zinc (Zn^2+) ions on the lipid metabolism in human airway epithelial cells was assessed the modulation of cytoplasmic phospholipases (cPLA2) activity. cPLA2 activity, as evaluated by colorimetric assay, was decreased following fenretinide treatment in a time dependent fashion, starting 24h after treatment (FIG. 1).

T1 sequence (P13569 with tags, fused parts or gaps DEL508-508): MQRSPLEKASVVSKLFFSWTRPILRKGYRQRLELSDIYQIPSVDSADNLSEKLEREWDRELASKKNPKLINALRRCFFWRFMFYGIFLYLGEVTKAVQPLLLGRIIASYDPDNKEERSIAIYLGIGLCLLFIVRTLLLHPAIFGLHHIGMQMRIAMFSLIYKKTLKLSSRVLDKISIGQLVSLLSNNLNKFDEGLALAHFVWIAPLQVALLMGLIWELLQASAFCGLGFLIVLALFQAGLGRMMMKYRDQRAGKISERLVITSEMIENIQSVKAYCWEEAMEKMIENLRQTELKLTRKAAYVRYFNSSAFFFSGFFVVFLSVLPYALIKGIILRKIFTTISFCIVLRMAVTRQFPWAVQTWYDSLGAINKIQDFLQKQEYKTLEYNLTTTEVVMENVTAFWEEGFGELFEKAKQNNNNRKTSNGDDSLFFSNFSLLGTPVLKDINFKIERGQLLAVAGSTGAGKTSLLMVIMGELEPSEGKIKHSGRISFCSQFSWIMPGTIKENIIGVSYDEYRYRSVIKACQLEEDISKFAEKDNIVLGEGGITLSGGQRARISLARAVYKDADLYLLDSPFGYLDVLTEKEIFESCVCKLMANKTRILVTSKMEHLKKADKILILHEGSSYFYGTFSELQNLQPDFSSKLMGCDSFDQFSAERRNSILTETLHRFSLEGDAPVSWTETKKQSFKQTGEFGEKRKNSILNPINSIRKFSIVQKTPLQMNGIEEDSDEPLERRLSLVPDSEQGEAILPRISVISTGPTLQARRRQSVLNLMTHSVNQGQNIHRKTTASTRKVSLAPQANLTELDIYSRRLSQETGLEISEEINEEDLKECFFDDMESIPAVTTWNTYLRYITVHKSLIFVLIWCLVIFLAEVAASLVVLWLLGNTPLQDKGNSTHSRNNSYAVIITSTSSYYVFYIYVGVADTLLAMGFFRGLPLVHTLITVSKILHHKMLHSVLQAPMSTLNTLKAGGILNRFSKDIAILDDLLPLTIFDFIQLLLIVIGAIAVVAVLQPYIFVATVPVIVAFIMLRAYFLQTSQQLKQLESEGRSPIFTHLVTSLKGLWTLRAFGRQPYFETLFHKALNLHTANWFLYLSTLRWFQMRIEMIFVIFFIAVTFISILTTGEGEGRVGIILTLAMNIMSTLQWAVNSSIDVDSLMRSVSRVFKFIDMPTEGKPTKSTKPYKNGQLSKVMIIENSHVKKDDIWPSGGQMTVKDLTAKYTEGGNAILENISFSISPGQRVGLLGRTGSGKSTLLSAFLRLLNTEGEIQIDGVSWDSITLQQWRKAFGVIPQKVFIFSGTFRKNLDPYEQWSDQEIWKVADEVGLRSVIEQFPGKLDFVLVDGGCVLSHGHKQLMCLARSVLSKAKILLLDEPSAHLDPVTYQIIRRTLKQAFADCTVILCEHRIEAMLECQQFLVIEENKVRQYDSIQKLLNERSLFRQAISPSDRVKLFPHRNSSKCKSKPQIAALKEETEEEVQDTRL

In the case of `CN(C)CCC=C1c2ccccc2CCc2ccccc21` [Amitriptyline], the “Induction of CFTR platform formation by fenretinide+thapsigargin” value in the assay on GFP-wt-CFTR (in the presence of Amitriptyline 13 μM for 40 min) is given as “inhibited”.
For `CC1=C(/C=C/C(C)=C/C=C/C(C)=C/C(=O)Nc2ccc(O)cc2)C(C)(C)CCC1` [fenretinide, all-trans-N-(4-hydroxyphenyl) retinamide], in assay [1], the DHA levels result is given as “significant increase” and the DHA/AA ratio result was “significant increase”. In addition, at F508del-CFTR, the F508del-CFTR channel function entry is “significant increase”. Further, in assay [2] (1.25 μM fenretinide, 12, 24, 48 or 72 hours), the cPLA2 activity entry was “decreased”. Also, in the assay with GFP-wt-CFTR, the “CFTR clustering / platforms (degree of aggregation) at the plasma membrane” value is listed as “did not affect CFTR clustering”.
As for zinc sulfate, in assay [1], the DHA levels entry was “significant increase” and the DHA/AA ratio entry is “significant increase”. Also, in assay [2] (12.5 μM zinc sulfate in the absence of fenretinide, 72h), the cPLA2 activity entry was “significantly increase”. Besides, in assay [2] (12.5 μM zinc sulfate with 1.25 μM fenretinide, 24h and 48h), the “cPLA2 activity, effect of zinc added to fenretinide” value was “potentiate the effect of fenretinide”.
On to `C/C=C(/C)C(=O)O[C@H]1C(C)=C2[C@H]([C@@H]1OC(=O)CCCCCCC)[C@@](C)(OC(C)=O)C[C@H](OC(=O)CCC)[C@@]1(O)[C@H]2OC(=O)[C@@]1(C)O` [thapsigargin], for which, in the assay on GFP-wt-CFTR, the “CFTR clustering / platforms (degree of aggregation) at the plasma membrane” value is “induces some CFTR platforms”.
